Reference: patent US11807609B2, “Deuterated compounds as immunomodulators” (CHEMOCENTRYX, INC., priority 2017, dated 2023)
pIC50: −log10 of the molar value.

Target: T1, C5aR (Homo sapiens, UniProt P21730)
T1 construct: added to freshly-drawn human blood (EDTA as anticoagulant); endogenous in cells; host or cells: leukocytes in freshly drawn human whole blood (EDTA)
T1 sequence (P21730 1-350): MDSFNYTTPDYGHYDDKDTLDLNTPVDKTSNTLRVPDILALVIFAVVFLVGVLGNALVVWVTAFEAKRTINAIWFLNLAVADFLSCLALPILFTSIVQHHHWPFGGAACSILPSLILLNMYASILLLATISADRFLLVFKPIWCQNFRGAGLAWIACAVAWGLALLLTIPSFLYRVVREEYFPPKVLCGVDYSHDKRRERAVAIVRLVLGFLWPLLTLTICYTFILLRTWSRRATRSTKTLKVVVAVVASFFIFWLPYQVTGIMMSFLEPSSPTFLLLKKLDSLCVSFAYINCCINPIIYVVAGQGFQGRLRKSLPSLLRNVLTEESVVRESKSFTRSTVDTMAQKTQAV
Experiment: C5a-induced chemotaxis (migration) assay in freshly-drawn human blood, ChemoTX plate, CyQUANT readout
Assay type: cell-based
Settings: migration of cells from human whole blood (EDTA) toward recombinant hC5a, 37° C., 90-180 minutes; read-out: Mig IC50
Method: A serial dilution of C5aR compound or an equivalent volume of DMSO was added to freshly-drawn human blood (EDTA as anticoagulant). Separately, recombinant hC5a was diluted with chemotaxis buffer, after which 29 μl of diluted chemokine was placed in the lower wells of a ChemoTX plate (Neuro Probe, Gaithersburg, MD). A 3-μm (pore size) polycarbonate membrane (Neuro Probe, Gaithersburg, MD) was placed onto the plate, and 20 μL of the blood/compound mixture was transferred onto each well of the membrane. The plates were incubated at 37° C. for 90-180 minutes, after which the polycarbonate membranes were removed and 5 μl of the DNA-intercalating agent CyQUANT (Invitrogen, Carlsbad, CA) was added to the lower wells. The amount of fluorescence, corresponding to the number of migrated cells, was measured using a Spectrafluor Plus plate reader (TECAN, San Jose, CA).
Compounds in Table 1 were prepared by methods as described in the Examples, and evaluated according to the assay above. The IC50 of the compounds are presented in Table 1 as follows: +++, IC50≤100 nM .

Compound	pIC50
[2H]c1cc(C)c(C(=O)N2CCC[C@H](C(=O)Nc3ccc(C([2H])([2H])O)c(C(F)(F)F)c3)[C@@H]2c2ccc(NC3CCCC3)cc2)c(F)c1 [Compound 1.001]	≥ 7.00
[2H]c1cc([C@H]2[C@@H](C(=O)Nc3ccc(C([2H])([2H])O)c(C(F)(F)F)c3)CCCN2C(=O)c2c(C)cccc2F)ccc1NC1CCCC1 [Compound 1.002]	≥ 7.00
[2H]C([2H])([2H])c1cccc(F)c1C(=O)N1CCC[C@H](C(=O)Nc2ccc(C([2H])([2H])O)c(C(F)(F)F)c2)[C@@H]1c1ccc(NC2CCCC2)cc1 [Compound 1.003, (2R,3S)-2-(4-(cyclopentylamino)phenyl)-1-(2-fluoro-6-(methyl-d3)benzoyl)-N-(4-(hydroxymethyl-d2)-3-(trifluoromethyl)phenyl)piperidine-3-carboxamide]	≥ 7.00
[2H]c1cc([C@H]2[C@@H](C(=O)Nc3ccc(C)c(C(F)(F)F)c3)CCCN2C(=O)c2c(F)cccc2C([2H])([2H])[2H])ccc1NC1CCCC1 [Compound 1.004]	≥ 7.00
[2H]C1([2H])CC(Nc2ccc([C@H]3[C@@H](C(=O)Nc4ccc(C)c(C(F)(F)F)c4)CCCN3C(=O)c3c(C)cccc3F)cc2)CC1([2H])[2H] [Compound 1.005]	≥ 7.00
[2H]C([2H])(O)c1ccc(NC(=O)[C@H]2CCCN(C(=O)c3c(C)cccc3F)[C@H]2c2ccc(NC3CCCC3)cc2)cc1C(F)(F)F [Compound 1.006, (2R,3S)-2-(4-(cyclopentylamino)phenyl)-1-(2-fluoro-6-methylbenzoyl)-N-(4-(hydroxymethyl-d2)-3-(trifluoromethyl)phenyl)-piperidine-3-carboxamide]	≥ 7.00
[2H]c1cc([C@H]2[C@@H](C(=O)Nc3c([2H])cc(C)c(C(F)(F)F)c3[2H])CCCN2C(=O)c2c(C)cccc2F)ccc1NC1CCCC1 [Compound 1.007]	≥ 7.00
[2H]c1cc([C@H]2[C@@H](C(=O)Nc3ccc(C)c(C(F)(F)F)c3)CCCN2C(=O)c2c(C)cccc2F)ccc1NC1CCCC1 [Compound 1.008]	≥ 7.00
[2H]C1(Nc2ccc([C@H]3[C@@H](C(=O)Nc4ccc(C)c(C(F)(F)F)c4)CCCN3C(=O)c3c(C)cccc3F)cc2)CCCC1 [Compound 1.009]	≥ 7.00
[2H]C([2H])([2H])c1ccc(NC(=O)[C@H]2CCCN(C(=O)c3c(F)cccc3C([2H])([2H])[2H])[C@H]2c2ccc(NC3CCCC3)cc2)cc1C(F)(F)F [Compound 1.010, (2R,3S)-2-(4-(cyclopentylamino)phenyl)-1-(2-fluoro-6-(methyl-d3)benzoyl)-N-(4-(methyl-d3)-3-(trifluoromethyl)phenyl)piperidine-3-carboxamide]	≥ 7.00
[2H]C([2H])([2H])c1cccc(F)c1C(=O)N1CCC[C@H](C(=O)Nc2ccc(CO)c(C(F)(F)F)c2)[C@@H]1c1ccc(NC2CCCC2)cc1 [Compound 1.011]	≥ 7.00
[2H]c1cc(C)c(C(F)(F)F)c([2H])c1NC(=O)[C@H]1CCCN(C(=O)c2c(F)cccc2C([2H])([2H])[2H])[C@H]1c1ccc(NC2CCCC2)cc1 [Compound 1.012]	≥ 7.00
[2H]c1cc(C)c(C(=O)N2CCC[C@H](C(=O)Nc3ccc(C)c(C(F)(F)F)c3)[C@@H]2c2ccc(NC3CC([2H])([2H])C([2H])([2H])C3)cc2)c(F)c1 [Compound 1.013]	≥ 7.00
[2H]C([2H])([2H])c1cccc(F)c1C(=O)N1CCC[C@H](C(=O)Nc2ccc(C)c(C(F)(F)F)c2)[C@@H]1c1ccc(NC2CC([2H])([2H])C([2H])([2H])C2)cc1 [Compound 1.014, (2R,3S)-2-(4-((cyclopentyl-3,3,4,4-d4)amino)phenyl)-1-(2-fluoro-6-(methyl-d3)benzoyl)-N-(4-methyl-3-(trifluoromethyl)phenyl)piperidine-3-carboxamide]	≥ 7.00
[2H][C@]1(C(=O)Nc2ccc(C)c(C(F)(F)F)c2)CCCN(C(=O)c2c(C)cccc2F)[C@H]1c1ccc(NC2CCCC2)cc1 [Compound 1.015]	≥ 7.00
[2H]c1cc(C)c(C(=O)N2CCC[C@H](C(=O)Nc3ccc(C)c(C(F)(F)F)c3)[C@@H]2c2ccc(NC3CCCC3)cc2)c(F)c1 [Compound 1.016]	≥ 7.00
[2H]C([2H])([2H])c1cccc(F)c1C(=O)N1CCC[C@H](C(=O)Nc2ccc(C)c(C(F)(F)F)c2)[C@@H]1c1ccc(NC2CCCC2)cc1 [Compound 1.017]	≥ 7.00
[2H]c1cc(C)c(C(F)(F)F)c([2H])c1NC(=O)[C@H]1CCCN(C(=O)c2c(C)cccc2F)[C@H]1c1ccc(NC2CCCC2)cc1 [Compound 1.018, (2R,3S)-2-(4-(cyclopentylamino)phenyl)-1-(2-fluoro-6-methylbenzoyl)-N-(4-methyl-3-(trifluoromethyl)phenyl-2,6-d3)piperidine-3-carboxamide]	≥ 7.00
[2H]C1([2H])C([2H])([2H])C([2H])([2H])C([2H])(Nc2ccc([C@H]3[C@@H](C(=O)Nc4ccc(C)c(C(F)(F)F)c4)CCCN3C(=O)c3c(C)cccc3F)cc2)C1([2H])[2H] [Compound 1.019, (2R,3S)-2-(4-((cyclopentyl-d9)amino)phenyl)-1-(2-fluoro-6-methylbenzoyl)-N-(4-methyl-3-(trifluoromethyl)phenyl)piperidine-3-carboxamide]	≥ 7.00
[2H]c1cc(C)c(C(F)(F)F)cc1NC(=O)[C@H]1CCCN(C(=O)c2c(C)cccc2F)[C@H]1c1ccc(NC2CCCC2)cc1 [Compound 1.020]	≥ 7.00
[2H]C([2H])([2H])c1ccc(NC(=O)[C@H]2CCCN(C(=O)c3c(C)cccc3F)[C@H]2c2ccc(NC3CCCC3)cc2)cc1C(F)(F)F [Compound 1.021, (2R,3S)-2-(4-(cyclopentylamino)phenyl)-1-(2-fluoro-6-methylbenzoyl)-N-(4-(methyl-d3)-3-(trifluoromethyl)phenyl)piperidine-3-carboxamide]	≥ 7.00
